Experimental findings from article PMC6530635, “A Novel Single-Site Mutation in the Catalytic Domain of Protoporphyrinogen Oxidase IX (PPO) Confers Resistance to PPO-Inhibiting Herbicides” (Frontiers in Plant Science, 2019) are described below.

A value given as a limit tells only on which side of the number the result lay.

Holding throughout (format): biochemical
Assay [1] relates to recombinant Amaranthus tuberculatus PPO2 ΔG210.
Assay [2] has as its system recombinant Amaranthus tuberculatus PPO2 R128L.
The test system of assay [3] is recombinant Amaranthus tuberculatus PPO2 G399A.

`O=C(O)c1cc(Oc2ccc(C(F)(F)F)cc2Cl)ccc1[N+](=O)[O-]` [Acifluorfen]: the “Resistance factor ΔG210 (IC50 mutant / IC50 sensitive PPO2)” value in assay [1] is above 541. The “Resistance factor R128L (IC50 mutant / IC50 sensitive PPO2)” value in assay [2] is above 541. Moreover, in assay [3], the “Resistance factor G399A (IC50 mutant / IC50 sensitive PPO2)” value is above 541.
For the compound `C=CCOC(=O)C(C)(C)OC(=O)c1cc(-n2c(=O)cc(C(F)(F)F)n(C)c2=O)ccc1Cl` [Butafenacil], the “Resistance factor ΔG210 (IC50 mutant / IC50 sensitive PPO2)” value in assay [1] stood at 17578. Also, the “Resistance factor R128L (IC50 mutant / IC50 sensitive PPO2)” value in assay [2] came to 23. The “Resistance factor G399A (IC50 mutant / IC50 sensitive PPO2)” value in assay [3] amounted to 741.
Turning to `Cc1nn(-c2cc(CC(Cl)C(=O)O)c(Cl)cc2F)c(=O)n1C(F)F` (stereo not shown) [Carfentrazone], the “Resistance factor ΔG210 (IC50 mutant / IC50 sensitive PPO2)” value in assay [1] worked out at 3957. The “Resistance factor R128L (IC50 mutant / IC50 sensitive PPO2)” value in assay [2] was found to be 3. Besides, the “Resistance factor G399A (IC50 mutant / IC50 sensitive PPO2)” value in assay [3] is 116.
Regarding `C#CCN1C(=O)COc2cc(F)c(N3C(=O)C4=C(CCCC4)C3=O)cc21` [Flumioxazin], in assay [1], the “Resistance factor ΔG210 (IC50 mutant / IC50 sensitive PPO2)” value came out at 3157. In assay [2], the “Resistance factor R128L (IC50 mutant / IC50 sensitive PPO2)” value is 2631. Besides, the “Resistance factor G399A (IC50 mutant / IC50 sensitive PPO2)” value in assay [3] is listed as 868.
`COC(=O)CSc1cc(/N=c2\sc(=O)n3n2CCCC3)c(F)cc1Cl` [Fluthiacet-methyl]: in assay [1], the “Resistance factor ΔG210 (IC50 mutant / IC50 sensitive PPO2)” value is reported as 94. For the same compound, in assay [2], the “Resistance factor R128L (IC50 mutant / IC50 sensitive PPO2)” value is 4. For the same compound, the “Resistance factor G399A (IC50 mutant / IC50 sensitive PPO2)” value in assay [3] turned out to be 3567.
Turning to `CCOC(=O)C(C)OC(=O)c1cc(Oc2ccc(C(F)(F)F)cc2Cl)ccc1[N+](=O)[O-]` (stereo not shown) [Lactofen], the “Resistance factor ΔG210 (IC50 mutant / IC50 sensitive PPO2)” value in assay [1] worked out at 18271. Besides, the “Resistance factor R128L (IC50 mutant / IC50 sensitive PPO2)” value in assay [2] is 2812. Moreover, in assay [3], the “Resistance factor G399A (IC50 mutant / IC50 sensitive PPO2)” value was 28167.
On to `CC(C)Oc1cc(-n2nc(C(C)(C)C)oc2=O)c(Cl)cc1Cl` [Oxadiazon], for which the “Resistance factor ΔG210 (IC50 mutant / IC50 sensitive PPO2)” value in assay [1] is on record as 151. In addition, the “Resistance factor R128L (IC50 mutant / IC50 sensitive PPO2)” value in assay [2] was 1. The “Resistance factor G399A (IC50 mutant / IC50 sensitive PPO2)” value in assay [3] is recorded as 285.
In the case of `CCOc1cc(Oc2ccc(C(F)(F)F)cc2Cl)ccc1[N+](=O)[O-]` [Oxyfluorfen], the “Resistance factor ΔG210 (IC50 mutant / IC50 sensitive PPO2)” value in assay [1] came to 982. In addition, the “Resistance factor R128L (IC50 mutant / IC50 sensitive PPO2)” value in assay [2] worked out at 74. In addition, the “Resistance factor G399A (IC50 mutant / IC50 sensitive PPO2)” value in assay [3] came out at 18548.
For the compound `C#CCN(C)c1c(C#N)cnn1-c1nn2c(c1Cl)CCCC2` [Pyraclonil], the “Resistance factor ΔG210 (IC50 mutant / IC50 sensitive PPO2)” value in assay [1] was found to be 782. Moreover, the “Resistance factor R128L (IC50 mutant / IC50 sensitive PPO2)” value in assay [2] stood at 0. Besides, the “Resistance factor G399A (IC50 mutant / IC50 sensitive PPO2)” value in assay [3] is recorded as 799.
Regarding `CCOC(=O)COc1cc(-c2nn(C)c(OC(F)F)c2Cl)c(F)cc1Cl` [Pyraflufen-ethyl], the “Resistance factor ΔG210 (IC50 mutant / IC50 sensitive PPO2)” value in assay [1] is 1083. Further, the “Resistance factor R128L (IC50 mutant / IC50 sensitive PPO2)” value in assay [2] worked out at 1. Besides, the “Resistance factor G399A (IC50 mutant / IC50 sensitive PPO2)” value in assay [3] worked out at 11816.
For `Cc1nn(-c2cc(NS(C)(=O)=O)c(Cl)cc2Cl)c(=O)n1C(F)F` [Sulfentrazone], the “Resistance factor G399A (IC50 mutant / IC50 sensitive PPO2)” value in assay [3] is on record as 282.
